From patent US11944623B2, “Modulators of Kv3 channels to treat pain” (Autifony Therapeutics Limited, priority 2015, dated 2024)

Key:
[1] = tested on: rat model of persistent inflammatory pain; assay: Persistent inflammatory pain model (intraplantar FCA): paw withdrawal to mechanical pressure and cold (10° C.), general observations; assay type: in vivo; settings: 30 mg/kg oral
Method: (§1) The efficacy of Compounds 1, 2, 3 and 4 was investigated using rat models of neuropathic and/or persistent inflammatory pain.
(§2) Subjects comprised male, Wistar Hanover rats, 6 animals per group (225±2 g for Compound 1 studies and Compound 2 studies; 214±1 g for Compound 3 studies; 236±1 g for Compound 4 studies).
(§3) Vehicle (12% Captisol®; 0.5% w/v HPMC and 0.1% w/v Tween-80; 5 ml/kg via the intraperitoneal route) was prepared using autoclaved deionized water not more than one week prior to use.
(§4) The details of the studies performed are outlined in Table 1.
(§5) The control for the neuropathic pain model was lamotrigine, administered at 30 mg/kg via oral delivery. The control for the inflammatory pain model was diclofenac, administered at 30 mg/kg via oral delivery. Statistical analysis was performed using one-way ANOVA, and comparisons were performed with time-matched vehicle group using Tukey's HSD test wherein * p<0.05, ** p<0.01, *** p<0.001.
(§6) Treatment groups were randomised and blinded. Groups of 6 rats were used.
Mechanical hyperalgesia was examined in a model of persistent inflammatory pain. The hyperalgesia was induced by an intraplantar injection (25 μl) of Freund's Complete Adjuvant (FCA) into the left hind paw.
To assess the effect of the test compound, paw withdrawal thresholds or latencies were measured on both the ipsilateral (FCA-injected) and contralateral (non-injected) paws, prior to (naïve) and 24 hours following FCA injection (predose), and then at 1, 3, 6 and 24 hours after drug or vehicle administration.
(§7) Mechanical hyperalgesia was examined in a model of neuropathic pain by measuring paw withdrawal thresholds (PWT) to increasing mechanical force applied to the dorsal surface of the rat paw using an Analgesymeter (Ugo-Basile, Milan) equipped with a wedge-shaped probe (area 1.75 mm^2). Cut-off was set at 250 g and the end-point was taken as withdrawal of the hind paw. Both ipsilateral and contralateral paw withdrawal readings were taken.
(§8) Cold sensitivity was assessed using a commercially available cold-plate (Ugo Basile, Milan). The cold plate was allowed to stabilize for 5 minutes at the set temperature prior to testing. Paw withdrawal latencies (PWL) were determined with the cold-plate set at 10° C. The animals were lightly restrained and each hind paw in turn placed onto the surface of the cold-plate. The end point was taken as the withdrawal of the paw and recorded as the withdrawal latency for the ipsilateral and the contralateral paw. A maximum cut-off of 30 seconds was used for each paw.
(§9) In addition to behavioural pain readings, each rat was observed throughout the study for changes in general behaviour.
(§10) Data were expressed as withdrawal threshold (g) or withdrawal latencies (s) and percentage reversals calculated according to the following formula: […]
(§11) Statistical analysis was carried out on withdrawal threshold readings using ANOVA with repeated measures followed by Tukey's HSD test. The level for statistical significance was set as p<0.05.

[2] = tested on: rat model of neuropathic pain; assay: Neuropathic pain model (partial ligation of the sciatic nerve): paw withdrawal to mechanical pressure and cold (10° C.), general observations; assay type: in vivo
Method: as §1, §2, §3, §4, §5, §6
Neuropathic pain was induced by partial ligation of the sciatic nerve. Briefly, the rats were anaesthetised (isoflurane/O2 inhalation), the left sciatic nerve exposed at mid-thigh level through a small incision and ⅓ to ½ of the nerve thickness tightly ligated within a 7.0 silk suture. The wound was closed with surgical glue. Animals were allowed to recover and tested 12-15 days following surgery.
Withdrawal thresholds or latencies were measured on both the ipsilateral (ligated) and contralateral (non-ligated) paws, prior to (predose) and then up to 24 h following drug or vehicle administration.
Pre-dose behavioural measurements were obtained by measuring paw withdrawals 14 days following nerve ligation; before the initiation of drug treatment. Following treatment, further readings were taken at 1, 3, 6 and 24 hour after administration.
as §7, §8, §9, §10, §11

[3] = positive control in Compound 2 study, 3 hours post-dose
[4] = positive control in Compound 3 study, 3 hours post-dose
[5] = positive control in Compound 4 study
[6] = positive control in Compound 2 Study 1, 30 mg/kg oral, 3 hours post-dose
[7] = positive control in Compound 3 neuropathic study, 30 mg/kg oral, 3 hours post-dose
[8] = positive control in Study 2 (Compounds 1 and 2), 30 mg/kg oral, 3 hours post-dose

| Structure (SMILES) | peak reversal, mechanical ([1]; positive control in Compound 1 study, 1 hour post-dose) [%] | peak reversal, cold ([1]; positive control in Compound 1 study, 3 hours post-dose) [%] | peak reversal, cold [1, 3] [%] | peak reversal, mechanical [1, 3] [%] | peak reversal, cold [1, 4] [%] | peak reversal, mechanical [1, 4] [%] | reversal, cold [1, 5] [%] | reversal, mechanical [1, 5] [%] | peak reversal, cold ([2]; positive control in Compound 1 Study 1, 30 mg/kg oral, 1 hour post-dose) [%] | peak reversal, mechanical ([2]; positive control in Compound 1 Study 1, 30 mg/kg oral, 3 hours post-dose) [%] | peak reversal, cold [2, 6] [%] | peak reversal, mechanical [2, 6] [%] | peak reversal, cold [2, 7] [%] | peak reversal, mechanical [2, 7] [%] | peak reversal, cold [2, 8] [%] | peak reversal, mechanical [2, 8] [%] |
| --- | --- | --- | --- | --- | --- | --- | --- | --- | --- | --- | --- | --- | --- | --- | --- | --- |
| O=C(O)Cc1ccccc1Nc1c(Cl)cccc1Cl [diclofenac, reference compound] | 64 | 79 | 69 | 66 | 45 | 60 | 50 | 49 | – | – | – | – | – | – | – | – |
| Nc1nnc(-c2cccc(Cl)c2Cl)c(N)n1 [lamotrigine, reference compound] | – | – | – | – | – | – | – | – | 58 | 65 | 58 | 54 | 74 | 61 | 67 | 67 |
